Measured values reported in patent US10183950B2, “Thienopyrimidine inhibitors of atypical protein kinase C” (Cancer Research Technology Limited, priority 2011, dated 2019).
pIC50: −log10 of the molar value.

These compounds were tested against T1, full-length human PKCι (Homo sapiens, UniProt P41743) (assay: PKCι IC50 IMAP fluorescence polarisation assay, full-length enzyme). Settings: full length PKCi at 15 μM ATP; read-out: IC50 in IMAP assay against full length PKCi.
T1 construct: Recombinant, full-length human PKCι expressed in Sf21 insect cells is also commercially available; purchased; host or cells: Sf21 insect cells
T1 sequence (P41743 1-596): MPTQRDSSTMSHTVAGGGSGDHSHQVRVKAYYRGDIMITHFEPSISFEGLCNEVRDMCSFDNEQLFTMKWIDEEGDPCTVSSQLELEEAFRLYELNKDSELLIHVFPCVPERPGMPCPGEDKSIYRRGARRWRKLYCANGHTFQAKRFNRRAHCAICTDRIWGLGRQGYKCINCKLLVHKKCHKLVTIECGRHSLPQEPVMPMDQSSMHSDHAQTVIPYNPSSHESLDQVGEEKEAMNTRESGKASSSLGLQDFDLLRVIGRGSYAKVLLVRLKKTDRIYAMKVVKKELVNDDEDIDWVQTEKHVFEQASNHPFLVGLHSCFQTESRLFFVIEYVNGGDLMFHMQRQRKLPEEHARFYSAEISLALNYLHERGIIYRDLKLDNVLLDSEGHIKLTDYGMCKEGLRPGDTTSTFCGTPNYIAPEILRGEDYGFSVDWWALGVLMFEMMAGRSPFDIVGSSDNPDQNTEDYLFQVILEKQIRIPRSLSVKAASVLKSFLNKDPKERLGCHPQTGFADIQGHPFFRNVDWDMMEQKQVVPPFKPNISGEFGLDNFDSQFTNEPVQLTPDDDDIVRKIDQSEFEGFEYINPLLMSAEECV
Assay type: biochemical
Protocol: Assays are based on the ability of PKCι to phosphorylate a commercially available peptide substrate in vitro. […] Recombinant, full-length human PKCι expressed in Sf21 insect cells is also commercially available. Recombinant, kinase-domain human PKCι is expressed and purified in-house.
The procedure below explains how dose response curves for inhibitors of PKCι are obtained.
Compounds to be tested are dissolved in 100% DMSO. […] 1 μl is plated into 384 well black low-binding flat bottomed assay plates which are used immediately. Dilutions and additions of compound to assay plates are carried out using Matrix WellMate® and Matrix PlateMate® Plus liquid handling systems.
The final concentration of peptide substrate in the assay is 100 nM. […] Relevant controls are included, namely no compound and no enzyme. […] The reaction is allowed to incubate for 60 minutes at room temperature, before the reaction is stopped and developed by the addition of 20 μl IMAP™ development reagent (Molecular Devices). IMAP development reagent consists of 0.25% (v/v) IMAP progressive binding reagent, 17% (v/v) IMAP progressive binding buffer A and 3% (v/v) IMAP progressive binding buffer B. The plates are then incubated for 2 hours at room temperature before being read using an appropriate plate reader, for example a Molecular Devices HT Analyst or a BMG Pherastar.

Compound | pIC50
N[C@H](CNc1nc(-c2ccncc2)nc2c(NC(=O)C3CCCCC3)csc12)Cc1ccccc1 [compound 474, Cyclohexanecarboxylic acid [4-((S)-2-amino-3-phenyl-propylamino)-2-pyridin-4-yl-thieno[3,2-d]pyrimidin-7-yl]-amide] | 4.40 to 5.00
CC(C)(C)c1sc2c(NC[C@@H](N)Cc3ccccc3)nc(-c3ccncc3)nc2c1Br [compound 334, (S)-N*1*-(7-Bromo-6-tert-butyl-2-pyridin-4-yl-thieno[3,2-d]pyrimidin-4-yl)-3-phenyl-propane-1,2-diamine] | 5.00 to 6.00
Cn1cc(-c2csc3c(NC[C@@H](N)Cc4ccccc4)nc(-c4ccncc4)nc23)cn1 [compound 411, (S)-N*1*-[7-(1-Methyl-1H-pyrazol-4-yl)-2-pyridin-4-yl-thieno[3,2-d]pyrimidin-4-yl]-3-phenyl-propane-1,2-diamine] | 5.00 to 6.00
N[C@@H](CNc1nc(-c2ccncc2)nc2c(-c3ccc(Br)cc3)csc12)Cc1ccccc1 [compound 327, (R)-N*1*-[7-(4-Bromo-phenyl)-2-pyridin-4-yl-thieno[3,2-d]pyrimidin-4-yl]-3-phenyl-propane-1,2-diamine] | 5.00 to 6.00
Cc1c(Br)sc2c(N[C@@H]3CCNC3)nc(-c3ccncc3)nc12 [compound 340, (6-Bromo-7-methyl-2-pyridin-4-yl-thieno[3,2-d]pyrimidin-4-yl)-(R)-pyrrolidin-3-yl-amine] | 6.00 to 7.00
COCC#Cc1csc2c(NC[C@@H](N)Cc3ccccc3)nc(-c3ccncc3)nc12 [compound 400, (S)-N*1*-[7-(3-Methoxy-prop-1-ynyl)-2-pyridin-4-yl-thieno[3,2-d]pyrimidin-4-yl]-3-phenyl-propane-1,2-diamine] | > 7.00
Cc1sc2c(N[C@H]3CCNC3)nc(-c3ccncc3)nc2c1Br [compound 332, (7-Bromo-6-methyl-2-pyridin-4-yl-thieno[3,2-d]pyrimidin-4-yl)-(S)-pyrrolidin-3-yl-amine] | 5.00 to 6.00
N[C@H](CNc1nc(-c2ccncc2)nc2c(Cl)csc12)Cc1ccccc1 [compound 306, (S)—N*1*-(7-Chloro-2-pyridin-4-yl-thieno[3,2-d]pyrimidin-4-yl)-3-phenyl-propane-1,2-diamine] | > 7.00
N[C@H](CNc1nc(-c2ccncc2F)nc2c(C#CCO)csc12)Cc1ccccc1 [compound 506, 3-[4-((S)-2-Amino-3-phenyl-propylamino)-2-(3-fluoro-pyridin-4-yl)-thieno[3,2-d]pyrimidin-7-yl]-prop-2-yn-1-ol] | > 7.00
N[C@H](CNc1nc(-c2ccncc2)nc2c(/C=C/C3CC3)csc12)Cc1ccccc1 [compound 405, (S)-N*1*-[7-((E)-2-Cyclopropyl-vinyl)-2-pyridin-4-yl-thieno[3,2-d]pyrimidin-4-yl]-3-phenyl-propane-1,2-diamine] | > 7.00
COc1cccc(Cl)c1-c1c(C)sc2c(NC[C@@H](N)Cc3ccccc3)nc(-c3ccncc3)nc12 [compound 453, (S)-N*1*-[7-(2-Chloro-6-methoxy-phenyl)-6-methyl-2-pyridin-4-yl-thieno[3,2-d]pyrimidin-4-yl]-3-phenyl-propane-1,2-diamine] | 4.40 to 5.00
N[C@H](CNc1nc(-c2ccncc2)nc2c(Nc3ccncn3)csc12)Cc1ccccc1 [compound 489, N*4*-((S)-2-Amino-3-phenyl-propyl)-2-pyridin-4-yl-N*7*-pyrimidin-4-yl-thieno[3,2-d]pyrimidine-4,7-diamine] | 5.00 to 6.00

Same assay, conditions: full length PKCi at 15 μM ATP; read-out: IC50 in IMAP assay against full length PKCi (Activity)

Compound | pIC50
N[C@H](CNc1nc(-c2ccncc2)nc2sc3c(c12)CCCC3)Cc1ccccc1O [compound 65, 2-[(S)-2-amino-3-(2-pyridin-4-yl-5,6,7,8-tetrahydro-benzo[4,5]thieno[2,3-d]pyrimidin-4-ylamino)-propyl]-phenol] | > 7.00
CC(C)(C)OC(=O)N1CCc2c(sc3nc(-c4ccncc4)nc(NC[C@@H](N)Cc4ccccc4)c23)C1 [compound 90, 4-((S)-2-Amino-3-phenyl-propylamino)-2-pyridin-4-yl-5,8-dihydro-6H-pyrido[4′,3′:4,5]thieno[2,3-d]pyrimidine-7-carboxylic acid tert-butyl ester] | 5.00 to 6.00
